This passage reports Ki results from US7803825B2, “Aminoalkylazole derivatives as histamine-3 antagonists” (Wyeth LLC, priority 2007, dated 2010).

For orientation: Ki means a measure of affinity in units of concentration, obtained from inhibition or displacement.

Each structure is given as a SMILES string. Counter-ions that a name gives are not always drawn.

In this assay the target is T1, histamine-3 (H3) receptor (Homo sapiens, UniProt Q9Y5N1).
T1 construct: expressed in transfected cells; host or cells: HEK293T
T1 sequence (Q9Y5N1 whole entry): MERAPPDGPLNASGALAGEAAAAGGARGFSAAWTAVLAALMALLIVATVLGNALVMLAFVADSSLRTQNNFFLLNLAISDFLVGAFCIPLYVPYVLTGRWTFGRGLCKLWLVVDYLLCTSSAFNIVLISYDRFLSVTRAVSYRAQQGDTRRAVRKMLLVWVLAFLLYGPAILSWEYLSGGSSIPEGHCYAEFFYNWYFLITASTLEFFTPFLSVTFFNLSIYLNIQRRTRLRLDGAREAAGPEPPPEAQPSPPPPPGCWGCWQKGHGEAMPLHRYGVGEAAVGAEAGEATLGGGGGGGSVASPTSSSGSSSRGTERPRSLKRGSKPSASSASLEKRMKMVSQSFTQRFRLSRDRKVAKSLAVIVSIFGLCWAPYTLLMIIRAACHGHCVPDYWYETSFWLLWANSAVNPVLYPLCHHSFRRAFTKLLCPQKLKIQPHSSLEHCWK
The assay can be described thus: Methyl Histamine Binding in Human Histamine-3 Receptor Cell Line. Particulars: membranes of stably transfected HEK293T cells, radioligand 1 nM, Ki from IC50 by Cheng-Prusoff. Here is the method:
Evaluation of Methyl Histamine Binding in Human Histamine-3 Receptor Cell Line
The affinity of test compounds for the histamine-3 (H3) receptor is evaluated in the following manner. Stably transfected HEK293T cells are grown in DMEM containing 10% heat inactivated FBS and G-418 (500 ug/ml). Cells are scraped from the plate, transferred to centrifuge tubes, washed one time in PBS by centrifugation in a Sorvall RT7 Plus centrifuge (2000 rpm 10 minutes, 4° C.). The resulting pellets are stored at 80° C. until ready for use. Cells are re-suspended in buffer (50 mM Tris pH=7.5) and placed in a Dounce homogenizer, douncing ten times to homogenize cells. The homogenate is spun down by centrifugation (Sorvall RT7 Plus, 1800 rpm 10 minutes, 4° C.). The supernatant is placed in a Corex tube and spun down by centrifugation (Sorvall RC 5c Plus, 17,000 rpm 20 minutes, 4° C.). The pellet is resuspended in buffer (50 mM Tris, pH 7.5). Protein concentration (ug/ul) is determined using the Micro-BCA Protein Determination. The binding assay is set up in a 96 well microtiter plate in a total volume of 250 uL. Non-specific binding is determined in the presence of 10 uM clobenpropit. The final radioligand concentration is 1 nM. The test compound is serially diluted using the Beckman Biomek2000 to a final approximate range of 100 uM to 100 pM. Membranes are suspended in buffer, homogenized in 2 bursts of ten seconds using a Vitris mechanical homogenizer set at power setting 5. Ten μg of membranes are added to each well. Following a one hour incubation at 30° C., the reaction is terminated by the addition of ice cold buffer and rapid filtration with a Packard Filtermate Harvester through a GF/B filter pre-soaked with 1% PEI for one hour. The plate is dried for one hour at 37° C. and 60 μL Microscint Scintillant is added to each well. The CPM per well is measured on a Packard Top Count NXT. Ki values are determined in nM. The Ki is calculated from the IC50 (i.e. the concentration of competing ligand which displaces 50% of the specific binding of the radioligand). CPM values are expressed as % specific binding and plotted vs compound concentration. A curve is fitted using a four-parameter logistic fit and the IC50 value is determined. The Ki is calculated from this using the Cheng-Prusoff equation: […]=IC50/1+(L/Kd) where L=concentration of free radioligand used in the assay, and Kd is the dissociation constant of the radioligand for the receptor. L is determined for each experiment by counting an aliquot of the diluted radioligand (corresponding to that added to each well) and the Kd has previously been determined under identical conditions for this cell line/radioligand.
For the molecule `c1ccc2c(c1)ncn2Cc1ccc(-c2nc(CN3CCCC3)co2)cc1` [Example 6B, 1-{4-[4-(Pyrrolidin-1-ylmethyl)-1,3-oxazol-2-yl]benzyl}-1H-benzimidazole Hydrochloride], the Ki is ≤ 10 nM. Turning to `c1ccc2c(c1)ncn2Cc1ccc(-c2nc(CN3CCCCC3)co2)cc1` [Example 7, 1-{4-[4-(piperidin-1-ylmethyl)-1,3-oxazol-2-yl]benzyl}-1H-benzimidazole], the Ki is ≤ 10 nM. For `CN(C)Cc1coc(-c2ccc(Cn3cnc4ccccc43)cc2)n1` [Example 8] the value was 10.1 to 25 nM; for `c1ccc2c(c1)ncn2Cc1ccc(-c2nc(CN3CCOCC3)co2)cc1` [Example 10, 1-{4-[4-(morpholin-4-ylmethyl)-1,3-oxazol-2-yl]benzyl}-1H-benzimidazole], > 100 nM. The result for `CN1CCN(Cc2coc(-c3ccc(Cn4cnc5ccccc54)cc3)n2)CC1` [Example 11] reads > 100 nM; that for `CCN(CC)Cc1coc(-c2ccc(Cn3cnc4ccccc43)cc2)n1` [Example 12, N-({2-[4-(1H-benzimidazol-1-ylmethyl)phenyl]-1,3-oxazol-4-yl}methyl)-N-ethylethanamine], ≤ 10 nM; that for `CC1CCCN1Cc1coc(-c2ccc(Cn3cnc4ccccc43)cc2)n1` (stereo not shown) [Example 13, 1-(4-{4-[(2-methylpyrrolidin-1-yl)methyl]-1,3-oxazol-2-yl}benzyl)-1H-benzimidazole], ≤ 10 nM. In the case of `c1ccc2c(c1)ncn2Cc1ccc(-c2nc(CN3CCCCCC3)co2)cc1` [Example 14, 1-{4-[4-(azepan-1-ylmethyl)-1,3-oxazol-2-yl]benzyl}-1H-benzimidazole], the Ki is ≤ 10 nM. The result for `CC1CCCCN1Cc1coc(-c2ccc(Cn3cnc4ccccc43)cc2)n1` (stereo not shown) [Example 15, 1-(4-{4-[(2-methylpiperidin-1-yl)methyl]-1,3-oxazol-2-yl}benzyl)-1H-benzimidazole] reads 50.1 to 100 nM; that for `CC1CCCN(Cc2coc(-c3ccc(Cn4cnc5ccccc54)cc3)n2)C1` (stereo not shown) [Example 16], ≤ 10 nM. The result for `CC1CCN(Cc2coc(-c3ccc(Cn4cnc5ccccc54)cc3)n2)CC1` [Example 17] reads ≤ 10 nM; that for `OC[C@@H]1CCCN1Cc1coc(-c2ccc(Cn3cnc4ccccc43)cc2)n1` [Example 18, [(2S)-1-({2-[4-(1H-benzimidazol-1-ylmethyl)phenyl]-1,3-oxazol-4-yl}methyl)pyrrolidin-2-yl]methanol], 10.1 to 25 nM; that for `C[C@@H]1CCCN1Cc1coc(-c2ccc(Cn3cnc4ccccc43)cc2)n1` [Example 19, 1-[4-(4-{[(2R)-2-methylpyrrolidin-1-yl]methyl}-1,3-oxazol-2-yl)benzyl]-1H-benzimidazole], ≤ 10 nM. As for `C[C@H]1CCCN1Cc1coc(-c2ccc(Cn3cnc4ccccc43)cc2)n1` [Example 20, 1-[4-(4-{[(2S)-2-methylpyrrolidin-1-yl]methyl}-1,3-oxazol-2-yl)benzyl]-1H-benzimidazole], the Ki is ≤ 10 nM. In turn, `F[C@@H]1CCN(Cc2coc(-c3ccc(Cn4cnc5ccccc54)cc3)n2)C1` [Example 21, 1-[4-(4-{[(3R)-3-fluoropyrrolidin-1-yl]methyl}-1,3-oxazol-2-yl)benzyl]-1H-benzimidazole] yielded a Ki of 10.1 to 25 nM.

In the case of `F[C@H]1CCN(Cc2coc(-c3ccc(Cn4cnc5ccccc54)cc3)n2)C1` [Example 22, 1-[4-(4-{[(3S)-3-fluoropyrrolidin-1-yl]methyl}-1,3-oxazol-2-yl)benzyl]-1H-benzimidazole], the Ki fell in the range of 10.1 to 25 nM. Consider `Cc1oc(-c2ccc(Cn3cnc4ccccc43)cc2)nc1CN1CCCC1` [Example 28, 1-{4-[5-methyl-4-(pyrrolidin-1-ylmethyl)-1,3-oxazol-2-yl]benzyl}-1H-benzimidazole], for which the Ki was ≤ 10 nM. Molecule `Brc1oc(-c2ccc(Cn3cnc4ccccc43)cc2)nc1CN1CCCC1` [Example 29, 1-{4-[5-bromo-4-(pyrrolidin-1-ylmethyl)-1,3-oxazol-2-yl]benzyl}-1H-benzimidazole] came in with a Ki of 25.1 to 50 nM. For `c1ccc2c(c1)ncn2-c1ccc(-c2nc(CN3CCCC3)co2)cc1` [Example 36, 1-{4-[4-(pyrrolidin-1-ylmethyl)-1,3-oxazol-2-yl]phenyl}-1H-benzimidazole] the value was ≤ 10 nM; for `c1ccc2c(c1)ncn2-c1ccc(-c2nc(CN3CCCCC3)co2)cc1` [Example 37], ≤ 10 nM. The result for `CN(C)Cc1coc(-c2ccc(-n3cnc4ccccc43)cc2)n1` [Example 38] reads 10.1 to 25 nM; that for `CCN(C)Cc1coc(-c2ccc(-n3cnc4ccccc43)cc2)n1` [Example 39], 10.1 to 25 nM; that for `c1ccc2c(c1)ncn2-c1ccc(-c2nc(CN3CCOCC3)co2)cc1` [Example 40], > 100 nM. For `CN1CCN(Cc2coc(-c3ccc(-n4cnc5ccccc54)cc3)n2)CC1` [Example 41, 1-(4-{4-[(4-methylpiperazin-1-yl)methyl]-1,3-oxazol-2-yl}phenyl)-1H-benzimidazole] the value was > 100 nM. `CCN(CC)Cc1coc(-c2ccc(-n3cnc4ccccc43)cc2)n1` [Example 42, N-({2-[4-(1H-benzimidazol-1-yl)phenyl]-1,3-oxazol-4-yl}methyl)-N-ethylethanamine]: the Ki was in the range of 25.1 to 50 nM. The result for `CC1CCCN1Cc1coc(-c2ccc(-n3cnc4ccccc43)cc2)n1` (stereo not shown) [Example 43, 1-(4-{4-[(2-methylpyrrolidin-1-yl)methyl]-1,3-oxazol-2-yl}phenyl)-1H-benzimidazole] reads 10.1 to 25 nM. With `c1ccc2c(c1)ncn2-c1ccc(-c2nc(CN3CCCCCC3)co2)cc1` [Example 44, 1-{4-[4-(azepan-1-ylmethyl)-1,3-oxazol-2-yl]phenyl}-1H-benzimidazole], the Ki was 25.1 to 50 nM. The result for `CC1CCCCN1Cc1coc(-c2ccc(-n3cnc4ccccc43)cc2)n1` (stereo not shown) [Example 45, 1-(4-{4-[(2-methylpiperidin-1-yl)methyl]-1,3-oxazol-2-yl}phenyl)-1H-benzimidazole] reads ≤ 10 nM; that for `CC1CCCN(Cc2coc(-c3ccc(-n4cnc5ccccc54)cc3)n2)C1` (stereo not shown) [Example 46, 1-(4-{4-[(3-methylpiperidin-1-yl)methyl]-1,3-oxazol-2-yl}phenyl)-1H-benzimidazole], ≤ 10 nM. Regarding `CC1CCN(Cc2coc(-c3ccc(-n4cnc5ccccc54)cc3)n2)CC1` [Example 47, 1-(4-{4-[(4-methylpiperidin-1-yl)methyl]-1,3-oxazol-2-yl}phenyl)-1H-benzimidazole], the Ki was ≤ 10 nM.

For `OC[C@@H]1CCCN1Cc1coc(-c2ccc(-n3cnc4ccccc43)cc2)n1` [Example 48, [(2S)-1-({2-[4-(1H-benzimidazol-1-yl)phenyl]-1,3-oxazol-4-yl}methyl)pyrrolidin-2-yl]methanol], the Ki was ≤ 10 nM. The result for `Cn1c(-c2ccc(-c3nc(CN4CCCC4)co3)cc2)nc2ccccc21` [Example 51, 1-methyl-2-{4-[4-(pyrrolidin-1-ylmethyl)-1,3-oxazol-2-yl]phenyl}-1H-benzimidazole] reads ≤ 10 nM; that for `Cn1c(-c2ccc(-c3nc(CN4CCCCC4)co3)cc2)nc2ccccc21` [Example 52, 1-methyl-2-{4-[4-(piperidin-1-ylmethyl)-1,3-oxazol-2-yl]phenyl}-1H-benzimidazole], ≤ 10 nM. The result for `CCN(C)Cc1coc(-c2ccc(-c3nc4ccccc4n3C)cc2)n1` [Example 53, N-methyl-N-({2-[4-(1-methyl-1H-benzimidazol-2-yl)phenyl]-1,3-oxazol-4-yl}methyl)ethanamine] reads ≤ 10 nM. For `CN(C)Cc1coc(-c2ccc(-c3nc4ccccc4n3C)cc2)n1` [Example 54, N,N-dimethyl-1-{2-[4-(1-methyl-1H-benzimidazol-2-yl)phenyl]-1,3-oxazol-4-yl}methanamine] the value was 10.1 to 25 nM; for `c1ccc2c(c1)nc(-c1ccc(-c3nc(CN4CCCC4)co3)cc1)n2CC1CCC1` [Example 58, 1-(cyclobutylmethyl)-2-{4-[4-(pyrrolidin-1-ylmethyl)-1,3-oxazol-2-yl]phenyl}-1H-benzimidazole], 10.1 to 25 nM. Consider `C[C@H]1CCCN1Cc1coc(-c2ccc(-c3nc4ccccc4n3CC3CCC3)cc2)n1` [Example 59, 1-(cyclobutylmethyl)-2-[4-(4-{[(2S)-2-methylpyrrolidin-1-yl]methyl}-1,3-oxazol-2-yl)phenyl]-1H-benzimidazole], for which the Ki is ≤ 10 nM.
